Holding throughout (assay type): functional, cell-based
Data set [1] has as its target T1, ATP-dependent translocase ABCB1 (P-glycoprotein) (Homo sapiens, UniProt P08183). The data set is described as follows: (§1) TP_TRANSPORTER: increase in Calcein-AM intracellular accumulation (Calcein-AM: 0.25 uM) in MDR-CEM cells. The settings on record: human, MDR-CEM cells, probe Calcein-AM.
The target of data set [2] is T1, ATP-dependent translocase ABCB1 (P-glycoprotein). The data set is described as follows: TP_TRANSPORTER: increase in Calcein-AM intracellular accumulation (Calcein-AM: 0.25 uM) in MDR-P388 cells. Conditions: mouse, probe Calcein-AM.
Data set [3] concerns the target ATP-dependent translocase ABCB1 (Homo sapiens, UniProt P08183). The description is as §1.

Data on two compounds can be found in ChEMBL document CHEMBL2074051, “Ranking of P-glycoprotein substrates and inhibitors by a calcein-AM fluorometry screening assay” (Anticancer Drugs, 1996).

pEC50: −log10 of the molar value. Non-standard residues stand in square brackets, D forms with d. Residues, ends and D or L forms follow the SMILES beside them. *: point of attachment. NMeI = CC[C@H](C)[C@H](NC)C(=O)O; NMeD = CN[C@@H](CC(=O)O)C(=O)O; NMeV = CN[C@H](C(=O)O)C(C)C; Pip = O=C(O)[C@@H]1CCCCN1; dLac = C[C@@H](O)C(=O)O; OtBu = CC(C)(C)O*

T1 sequence (P08183 whole entry): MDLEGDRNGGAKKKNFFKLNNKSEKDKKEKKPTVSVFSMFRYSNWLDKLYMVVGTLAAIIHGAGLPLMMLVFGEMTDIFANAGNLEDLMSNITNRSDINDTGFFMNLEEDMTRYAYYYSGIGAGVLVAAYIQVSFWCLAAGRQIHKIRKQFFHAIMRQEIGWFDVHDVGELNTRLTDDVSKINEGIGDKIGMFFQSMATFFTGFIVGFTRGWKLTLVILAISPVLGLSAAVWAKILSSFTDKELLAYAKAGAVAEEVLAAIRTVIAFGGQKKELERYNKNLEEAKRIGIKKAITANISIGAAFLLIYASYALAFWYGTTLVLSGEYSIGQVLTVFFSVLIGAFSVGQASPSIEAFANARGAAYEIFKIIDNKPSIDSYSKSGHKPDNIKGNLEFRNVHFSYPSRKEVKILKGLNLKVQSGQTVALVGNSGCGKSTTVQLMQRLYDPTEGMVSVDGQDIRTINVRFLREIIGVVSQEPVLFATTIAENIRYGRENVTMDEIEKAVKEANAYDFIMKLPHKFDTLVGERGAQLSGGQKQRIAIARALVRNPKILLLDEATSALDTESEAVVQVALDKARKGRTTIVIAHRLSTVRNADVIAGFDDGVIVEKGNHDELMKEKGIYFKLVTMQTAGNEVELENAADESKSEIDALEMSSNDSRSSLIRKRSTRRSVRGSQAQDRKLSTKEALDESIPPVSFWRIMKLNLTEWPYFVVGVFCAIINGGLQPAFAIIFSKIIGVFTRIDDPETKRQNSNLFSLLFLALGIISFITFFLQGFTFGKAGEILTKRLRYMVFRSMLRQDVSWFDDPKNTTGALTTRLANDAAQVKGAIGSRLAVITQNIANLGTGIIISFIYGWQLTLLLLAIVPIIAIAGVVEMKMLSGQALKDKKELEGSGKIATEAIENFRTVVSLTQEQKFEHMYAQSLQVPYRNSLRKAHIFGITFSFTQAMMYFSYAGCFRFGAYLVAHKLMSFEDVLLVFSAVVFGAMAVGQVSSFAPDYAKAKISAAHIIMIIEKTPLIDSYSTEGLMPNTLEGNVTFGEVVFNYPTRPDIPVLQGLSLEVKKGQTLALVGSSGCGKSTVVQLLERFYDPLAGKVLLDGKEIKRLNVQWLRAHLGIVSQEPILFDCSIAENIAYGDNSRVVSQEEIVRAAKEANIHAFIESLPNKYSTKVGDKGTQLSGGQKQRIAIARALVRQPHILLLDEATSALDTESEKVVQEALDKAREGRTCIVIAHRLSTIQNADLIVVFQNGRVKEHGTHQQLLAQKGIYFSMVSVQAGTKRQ
Sequence of ATP-dependent translocase ABCB1 (P08183 whole entry): as above

As to `CC[C@H](C)[C@H]1C(=O)NCC(=O)N(C)[C@@H](C(C)C)C(=O)N[C@@H](Cc2ccc(OC)cc2)C(=O)O[C@H](C)C(=O)N2CCCC[C@H]2C(=O)N(C)[C@@H](C(C)C)C(=O)N[C@@H](C(C)C)C(=O)N(C)[C@@H](CC(=O)OC(C)(C)C)C(=O)N(C)[C@@H]([C@@H](C)CC)C(=O)N1C` (cyclo(G[NMeV]Y(Me)[dLac][Pip][NMeV]V[NMeD](OtBu)[NMeI][NMeI])), the pEC50 in data set [1] was 6.66; in data set [2] it was 7.22.

Turning to `CCN(CC)CCCC(C)Nc1c2ccc(Cl)cc2nc2ccc(OC)cc12` (stereo not drawn) [QUINACRINE], in data set [3], the negative-log EC50 (pEC50) was 4.84.
